System: benzodiazepine receptors
Assay: in vivo displacement of 3H-flunitrazepam from brain benzodiazepine receptors
Settings: female mice, intraperitoneal, 15 min before 3H-FNM i.v.; forebrain 20 min after 3H-FNM
Source text: The pharmaceutical properties of the compounds of the invention can be illustrated by determining their capability for displacing radioactivity labelled flunitrazepam from benzodiazepine receptors.
The displacement activity of the compounds of the invention may be found by determining the ED50 value. The ED50 value represents the dose (mg/kg) of a test substance which causes the specific binding of flunitrazepam to benzodiazepine receptors in a living brain to be reduced to 50% of the control value.
Such an in vivo test is carried out as follow:
Principle. Twenty minutes after a dose of ^3 H-flunitrazepam (^3 H-FNM) (200 μCi/kg, i.v.) the amount of specific ^3 H-FNM binding to brain benzodiazepine receptors has reached its maximum value.
Test procedure. […] The amounts of radioactivity on the filters are determined by conventional scintillation counting. […]
Results. The ED50 value is determined from dose response curves. If only one dose of test substance is administered the ED50 value is calculated as follows, provided that the inhibition of specific binding is within the range of 25-75%: [formula] where Co is specific binding in controls and Cx is specific binding in mice treated with test substance.

SMILES: c1ccc2c(c1)N1CCCC1c1c(-c3noc(C4CC4)n3)ncn1-2 (stereo not shown)
- in vivo ED50 (dose reducing specific 3H-flunitrazepam binding to brain benzodiazepine receptors to 50% of the control value): 5.1 mg/kg

From patent US4795749A, “Imidazopyrroloquinoxaline compounds” (A/S Ferrosan, priority 1985, dated 1989)
